# Measurements published in PubChem BioAssay AID1963438 (Molecular Pharmacology Branch, DTP, NCI, 2024).
# Test system: NCI-H510 multicellular tumor spheroid growth, % test/control
# Experiment: Anticancer human tumor NCI-H510 cell line growth inhibition [Asc];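 further: spheroids exposed to agents for 7 days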;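 on viability, T/C: 100% = DMSO vehicle control wells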
# Settings: for IC50: curve of first compound; for viability, T/C: stronger effect = lower value
# Procedure, shortened: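 Spheroid model: tumor line + HUVEC + hMSC. Single agents and combinations; top conc. at/near clinical Cmax (10 microM if undetermined), half-log dilutions. DMSO stocks at 800-fold test concentration.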
# [1] = second compound 0.1 µM, first compound 0.0316 µM
# [2] = second compound 0.1 µM, first compound 0.1 µM
# [3] = second compound 0.316 µM, first compound 0.0316 µM
# [4] = second compound 0.316 µM, first compound 0.1 µM
# [5] = second compound 1 µM, first compound 0.0316 µM
# [6] = second compound 1 µM, first compound 0.1 µM
structure (smiles),measurement,setting,value
C=C(F)C(=O)N1CCN(c2nc(OCC3CCCN3C)nc3c2CCN(c2cccc4cccc(Cl)c24)C3)CC1CC#N (stereo not given) + CCN1C(C(=O)NC23CCC(C(=O)O)(CC2)CC3)C(c2cccc(Cl)c2F)C2(C(=O)Nc3cc(Cl)ccc32)C12CCCCC2,IC50,second compound 0.03 µM,1170 nM
same,IC50,second compound 0.0949 µM,1100 nM
same,IC50,second compound 0.3 µM,1280 nM
same,IC50,second compound 0.949 µM,717 nM
same,IC50,second compound 3 µM,1180 nM
same,"viability, T/C","second compound 0.03 µM, first compound 0.0316 µM",93.8%
same,"viability, T/C","second compound 0.03 µM, first compound 0.1 µM",103%
same,"viability, T/C","second compound 0.03 µM, first compound 0.316 µM",88.3%
same,"viability, T/C","second compound 0.03 µM, first compound 1 µM",58.2%
same,"viability, T/C","second compound 0.03 µM, first compound 3.16 µM",1.61%
same,"viability, T/C","second compound 0.03 µM, first compound 10 µM",0.12%
same,"viability, T/C","second compound 0.0949 µM, first compound 0.0316 µM",78.5%
same,"viability, T/C","second compound 0.0949 µM, first compound 0.1 µM",89%
same,"viability, T/C","second compound 0.0949 µM, first compound 0.316 µM",100%
same,"viability, T/C","second compound 0.0949 µM, first compound 1 µM",54.6%
same,"viability, T/C","second compound 0.0949 µM, first compound 3.16 µM",3.81%
same,"viability, T/C","second compound 0.0949 µM, first compound 10 µM",0.11%
same,"viability, T/C","second compound 0.3 µM, first compound 0.0316 µM",106%
same,"viability, T/C","second compound 0.3 µM, first compound 0.1 µM",88%
same,"viability, T/C","second compound 0.3 µM, first compound 0.316 µM",109%
same,"viability, T/C","second compound 0.3 µM, first compound 1 µM",62.5%
same,"viability, T/C","second compound 0.3 µM, first compound 3.16 µM",7.29%
same,"viability, T/C","second compound 0.3 µM, first compound 10 µM",0.11%
same,"viability, T/C","second compound 0.949 µM, first compound 0.0316 µM",95.3%
same,"viability, T/C","second compound 0.949 µM, first compound 0.1 µM",91.4%
same,"viability, T/C","second compound 0.949 µM, first compound 0.316 µM",88.5%
same,"viability, T/C","second compound 0.949 µM, first compound 1 µM",34.3%
same,"viability, T/C","second compound 0.949 µM, first compound 3.16 µM",4.93%
same,"viability, T/C","second compound 0.949 µM, first compound 10 µM",0.1%
same,"viability, T/C","second compound 3 µM, first compound 0.0316 µM",87.5%
same,"viability, T/C","second compound 3 µM, first compound 0.1 µM",121%
same,"viability, T/C","second compound 3 µM, first compound 0.316 µM",95%
same,"viability, T/C","second compound 3 µM, first compound 1 µM",52.5%
same,"viability, T/C","second compound 3 µM, first compound 3.16 µM",20.7%
same,"viability, T/C","second compound 3 µM, first compound 10 µM",0.18%
NC1CCC(NC2CC2c2ccccc2)CC1 (stereo not given) + Cc1c(S(C)(=O)=O)c(-c2cc(F)cc(N3CCN(c4ccc(NS(=O)(=O)c5ccc(NC(CCN6CCC(C(=O)OCCCP(=O)(O)O)CC6)CSc6ccccc6)c(S(=O)(=O)C(F)(F)F)c5)cc4)CC3)c2)c(-c2ccc(Cl)cc2)n1C(C)C,IC50,second compound 0.1 µM,> 100 nM
same,IC50,second compound 0.316 µM,> 100 nM
same,IC50,second compound 1 µM,> 100 nM
same,IC50,second compound 3.16 µM,> 100 nM
same,IC50,second compound 10 µM,> 100 nM
same,"viability, T/C","second compound 0.1 µM, first compound 0.000316 µM",88.8%
same,"viability, T/C","second compound 0.1 µM, first compound 0.001 µM",85%
same,"viability, T/C","second compound 0.1 µM, first compound 0.00316 µM",74.1%
same,"viability, T/C","second compound 0.1 µM, first compound 0.01 µM",87.7%
same,"viability, T/C",[1],67.5%
same,"viability, T/C",[2],90.4%
same,"viability, T/C","second compound 0.316 µM, first compound 0.000316 µM",86.1%
same,"viability, T/C","second compound 0.316 µM, first compound 0.001 µM",85.8%
same,"viability, T/C","second compound 0.316 µM, first compound 0.00316 µM",76.9%
same,"viability, T/C","second compound 0.316 µM, first compound 0.01 µM",66.5%
same,"viability, T/C",[3],78.4%
same,"viability, T/C",[4],97.9%
same,"viability, T/C","second compound 1 µM, first compound 0.000316 µM",116%
same,"viability, T/C","second compound 1 µM, first compound 0.001 µM",77.8%
same,"viability, T/C","second compound 1 µM, first compound 0.00316 µM",63.8%
same,"viability, T/C","second compound 1 µM, first compound 0.01 µM",67.1%
same,"viability, T/C",[5],64%
same,"viability, T/C",[6],59.6%
same,"viability, T/C","second compound 3.16 µM, first compound 0.000316 µM",81%
same,"viability, T/C","second compound 3.16 µM, first compound 0.001 µM",80.2%
same,"viability, T/C","second compound 3.16 µM, first compound 0.00316 µM",74.8%
same,"viability, T/C","second compound 3.16 µM, first compound 0.01 µM",67.1%
same,"viability, T/C","second compound 3.16 µM, first compound 0.0316 µM",80.6%
same,"viability, T/C","second compound 3.16 µM, first compound 0.1 µM",69.9%
same,"viability, T/C","second compound 10 µM, first compound 0.000316 µM",66.8%
same,"viability, T/C","second compound 10 µM, first compound 0.001 µM",63.1%
same,"viability, T/C","second compound 10 µM, first compound 0.00316 µM",63.6%
same,"viability, T/C","second compound 10 µM, first compound 0.01 µM",91%
same,"viability, T/C","second compound 10 µM, first compound 0.0316 µM",102%
same,"viability, T/C","second compound 10 µM, first compound 0.1 µM",36.1%
C=C(F)C(=O)N1CCN(c2nc(OCC3CCCN3C)nc3c2CCN(c2cccc4cccc(Cl)c24)C3)CC1CC#N (stereo not given) + CNC(C)C(=O)NC1CN(S(=O)(=O)c2cccc(S(=O)(=O)N3CCC4CCC(C(=O)NC(c5ccccc5)c5ccccc5)N4C(=O)C(NC(=O)C(C)NC)C3)c2)CCC2CCC(C(=O)NC(c3ccccc3)c3ccccc3)N2C1=O,IC50,second compound 0.01 µM,1960 nM
same,IC50,second compound 0.0316 µM,1860 nM
same,IC50,second compound 0.1 µM,1750 nM
same,IC50,second compound 0.316 µM,1700 nM
same,IC50,second compound 1 µM,1830 nM
same,"viability, T/C","second compound 0.01 µM, first compound 0.0316 µM",125%
same,"viability, T/C","second compound 0.01 µM, first compound 0.1 µM",117%
same,"viability, T/C","second compound 0.01 µM, first compound 0.316 µM",108%
same,"viability, T/C","second compound 0.01 µM, first compound 1 µM",116%
same,"viability, T/C","second compound 0.01 µM, first compound 3.16 µM",2.75%
same,"viability, T/C","second compound 0.01 µM, first compound 10 µM",0.14%
same,"viability, T/C","second compound 0.0316 µM, first compound 0.0316 µM",115%
same,"viability, T/C","second compound 0.0316 µM, first compound 0.1 µM",101%
same,"viability, T/C","second compound 0.0316 µM, first compound 0.316 µM",104%
same,"viability, T/C","second compound 0.0316 µM, first compound 1 µM",108%
same,"viability, T/C","second compound 0.0316 µM, first compound 3.16 µM",1.63%
same,"viability, T/C","second compound 0.0316 µM, first compound 10 µM",0.13%
same,"viability, T/C",[1],102%
same,"viability, T/C",[2],119%
same,"viability, T/C","second compound 0.1 µM, first compound 0.316 µM",110%
same,"viability, T/C","second compound 0.1 µM, first compound 1 µM",96.4%
same,"viability, T/C","second compound 0.1 µM, first compound 3.16 µM",1.1%
same,"viability, T/C","second compound 0.1 µM, first compound 10 µM",0.14%
same,"viability, T/C",[3],97.4%
same,"viability, T/C",[4],124%
same,"viability, T/C","second compound 0.316 µM, first compound 0.316 µM",115%
same,"viability, T/C","second compound 0.316 µM, first compound 1 µM",89.4%
same,"viability, T/C","second compound 0.316 µM, first compound 3.16 µM",4.39%
same,"viability, T/C","second compound 0.316 µM, first compound 10 µM",0.13%
same,"viability, T/C",[5],115%
same,"viability, T/C",[6],105%
same,"viability, T/C","second compound 1 µM, first compound 0.316 µM",108%
same,"viability, T/C","second compound 1 µM, first compound 1 µM",104%
same,"viability, T/C","second compound 1 µM, first compound 3.16 µM",0.85%
same,"viability, T/C","second compound 1 µM, first compound 10 µM",0.22%
